Article PMC11054727 (Viruses, 2024)

Molecular target: trimeric construct of the SARS-CoV-2 S2 segment (Severe acute respiratory syndrome coronavirus 2, UniProt P0DTC2, A892P/A899P/A942P/F817P/K986P/V987P)
Type: binding

Substance: Ivermectin
- binding to S2: did not show any binding
